Molecular target: T1, E-selectin (Homo sapiens, UniProt P16581)
T1 sequence (P16581 whole entry): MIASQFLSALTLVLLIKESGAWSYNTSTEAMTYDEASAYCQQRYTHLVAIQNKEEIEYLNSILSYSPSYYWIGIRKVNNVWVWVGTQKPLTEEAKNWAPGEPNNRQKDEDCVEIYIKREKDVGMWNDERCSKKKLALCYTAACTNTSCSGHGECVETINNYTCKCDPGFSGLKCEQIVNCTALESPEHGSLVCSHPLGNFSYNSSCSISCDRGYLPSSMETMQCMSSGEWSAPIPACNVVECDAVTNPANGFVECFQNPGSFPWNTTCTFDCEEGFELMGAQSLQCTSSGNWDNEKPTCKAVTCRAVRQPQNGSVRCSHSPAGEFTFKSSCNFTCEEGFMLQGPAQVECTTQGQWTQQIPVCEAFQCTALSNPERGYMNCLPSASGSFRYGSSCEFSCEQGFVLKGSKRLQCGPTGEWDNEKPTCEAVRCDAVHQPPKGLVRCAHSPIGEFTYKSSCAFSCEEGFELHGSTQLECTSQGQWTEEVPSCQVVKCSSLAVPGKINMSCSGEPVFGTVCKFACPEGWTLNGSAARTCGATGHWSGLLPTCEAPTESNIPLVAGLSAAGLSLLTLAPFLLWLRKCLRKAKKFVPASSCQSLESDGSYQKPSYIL
Assay: In vitro inhibitory activity against Selectin E-sialyl Lewis X (sLex) binding

IC50 [µM] | SMILES
4.3 | CCCCCCCCCCCCCCC(CCCCCCCCCCCCCC)C(=O)N[C@H](CO[C@@H]1O[C@H](C(C)O)[C@@H](O)[C@@H]1O)C(=O)N[C@@H](CCC(=O)O)C(=O)NC.N=C(N)NCCC[C@H](N)C=O (some centres undefined)
1.5 | CCCCCCCCCCCCCCC(CCCCCCCCCCCCCC)C(=O)NC(CO[C@@H]1O[C@@H](O)[C@@H](O)[C@H](O)[C@@H]1O)C(=O)N[C@@H](CCC(=O)O)C(=O)NC (single isomer, unassigned)
3.1 | CCCCCCCCCCCCCCC(CCCCCCCCCCCCCC)C(=O)N[C@@H](CO[C@@H]1O[C@H](C(C)O)[C@@H](O)[C@@H]1O)C(=O)N[C@H](CCC(=O)O)C(=O)NC (some centres undefined)
13 | CCCCCCCCCCCCCCC(CCCCCCCCCCCCCC)C(=O)NC(COC1O[C@@H](O)[C@@H](O)[C@H](O)[C@@H]1O)C(=O)N[C@H](CCC(=O)O)C(=O)NC (single isomer, unassigned)
